Assay results as given in patent publication US7102000B2, “Heterocyclic amide derivatives for the treatment of diabetes and other diseases” (Incyte San Diego Inc., priority 2002, dated 2006).

What was measured:
KKA^y mice = assay: Oral treatment of type 2 diabetes in KKA^y mice (serum glucose, triglyceride, cholesterol); assay type: in vivo, mouse; conditions: KKA^y mice, oral once daily, vs control mice, FIGS. 2a–d
From the text: The procedure for this in-vivo assay for anti-diabetes activity was described in detail by Iwatsuka, et al. (1970 General Survey of Diabetic Features of Yellow KK Mice. Endocrinol. Japon. 17: 23–35, incorporated herein in its entirety by reference).
Experimental Procedures: Six to eight week-old male KKA^y mice (obtained from Jackson Labs of Bar Harbord, Me.) were housed in a fixed 12–12-hr artificial light-dark cycle, and maintained on a standard rodent diet provided ad libitum. Animals were allowed two days to acclimate in this experimental environment prior to the initiation of the study.
Prior to initiation of treatment with the compounds of the invention, the animals were bled from the tail vein (100–200 μL of whole blood) and serum levels of glucose and triglycerides were measured in duplicate (Trinder kits; Sigma, St. Louis, Mo.). Based on these initial measures, animals were sorted into groups with approximately the same average serum glucose levels. Once sorted, the animals were housed one per cage and provided rodent diet ad libitum. Unless otherwise indicated, compounds were suspended in sesame oil, and administered by oral gavage once daily to animals in a volume of 3 ml/kg/dose.
Treatment Group A (n=5/group): (See Results in FIG. 2a) • 1) KKA^y vehicle control (sesame oil) • 2) Compound 1 (3 mg/kg) • 3) Compound 1 (10 mg/kg) • 4) Compound 2 (3 mg/kg) • 5) Compound 2 (10 mg/kg)
Treatment Group B (n=6/group): (See Results in FIG. 2b) • 1) KKA^y vehicle control (sesame oil) • 2) Compound 11 (15 mg/kg)
Treatment Group C (n=6/group): (See Results in FIG. 2c) • 1) KKA^y vehicle control (sesame oil) • 2) Compound 13 (15 mg/kg)
Treatment Group D (n=6/group): (See Results in FIG. 2d) • 1) KKA^y vehicle control (CMC) • 2) Compound 25 (3 mg/kg, CMC) Compound 25 was suspended in a solution of carboxymethyl cellulose (CMC; 1% carboxy methyl cellulose in H2O, with 10% polyethelene glycol 400), and administered to animals in a volume of 5 ml/kg/dose.
Treatment Group E (n=5/group): (See Results in FIG. 2e) • 1) KKA^y vehicle control (10% HPβCD) • 2) Compound 25 (1 mg/kg) • 3) Compound 25 (3 mg/kg) • 4) Compound 25 (10 mg/kg) Compound 25 was dissolved in a 10% hydroxy propyl beta cyclodextrin solution, and administered to animals in a volume of 10 ml/kg/dose.
Serum glucose, triglyceride and/or cholesterol levels were measured in duplicate. The blood is kept at room temperature to allow coagulation, after which the serum is separated and assayed for glucose, triglyceride and/or cholesterol levels. As shown in FIGS. 2a–2d all of the compounds tested reduced serum glucose and triglyceride levels, some with doses as low as 3 mg/kg when administered once a day.

[1] = system: THP-1 cells differentiated into macrophages; assay: Cholesterol efflux assay from macrophage foam cells; assay type: cell-based; conditions: 1 μM, 24 hr, with 10 μg/ml ApoA-I, compared to non treated cells, FIG. 4
Experimental: Cholesterol efflux from macrophage foam cells was assayed as described by Sparrow. et al, J. Biol. Chem.,2002, 277, 10021–10027, which is encorporated herein in its entirety by this reference. THP-1 cells obtained from ATCC (Manassas, VI), were cultured in RPMI medium (Sigma, St-Louis, Mo.), containing 10% fetal calf serum (Sigma, St-Louis, Mo.), 0.05 μM 2-mercaptoethanol, 1 mM sodium pyruvate, 2 mM L-glutamine, 100 units/ml penicillin, […] streptomycin and 0.25 μg/ml amphotericin B obtained from Sigma (St-Louis, Mo.). The THP-1 cells were differentiated into macrophages in 24 well tissue culture dishes at a density of 0.5 million cells/well by incubation in the same medium plus 100 nM tetradecanoyl phorbol acetate (Sigma, St-Louis, Mo.), for 3 days.
After differentiation into macrophages, the cells were tested for cholesterol efflux as induced by compound 2 of the invention. Cells were labeled by incubation for 24 hr in fresh growth medium containing [3 H]-cholesterol (10 μCi/ml) (PerkinElmer, Boston, Mass.), and 50 μg/ml acetylated-LDL (Frederick, Md.) and 1% Fetal bovine serum (Sigma, St-Louis, Mo.). […] Media were briefly centrifuged to remove non-adherent cells, and then aliquots of both the supernatant and the dissolved cells were counted by liquid scintillation spectrometry to determine radioactivity.
Cholesterol efflux is expressed as a percentage, calculated as […]

[2] = system: diet-induced hypercholesterolemic Sprague Dawley rats; assay: Diet-induced hypercholesterolemia in wild type Sprague Dawley rats (total, HDL, LDL cholesterol); assay type: in vivo, rat; conditions: Sprague Dawley rats on atherogenic diet, oral once daily, day 5, FIGS. 5a–c
From the text: Experimental Procedure: Six week-old male Sprague Dawley rats (obtained from Harlan of San Diego, Calif.) were housed in a fixed 12—12-hr artificial light-dark cycle, and maintained on a high cholesterol atherogenic diet (Paigen's Diet, obtained from Research Diet Inc. of New Brounswick, N.J.) was provided ad libitum. Animals were allowed six days to acclimate in this experimental environment prior to the initiation of the study.
Prior to initiation of treatment, the animals were bled from the tail vein (100–200 μL of whole blood) and serum levels of cholesterol were measured in duplicate (Cholesterol Infinity kits; Sigma, St. Louis, Mo.). Based on these initial measures, animals were sorted into groups with approximately the same average total cholesterol levels. Once sorted, the animals were housed three per cage and maintained on Paigen's diet ad libitum. All compounds to be tested were suspended in sesame oil and administered in a final volume of 3 ml/kg. Drug is administered by oral gavage once daily at the beginning of the artificial light cycle. To obtain a base line for lipid measurement, a control group maintained on standart rodent diet is included (lean control).
Treatment Group A (n=6/group): (See Results in FIG. 5a) • 1) Lean control (Sesame Oil) • 2) Control • 3) Compound 2 (0.3 mg/kg) • 4) Compound 2 (1 mg/kg) • 5) Compound 2 (3 mg/kg)
Treatment Group B (n=6/group): (See Results in FIG. 5b) • 1) Lean control (Sesame Oil) • 2) Control • 3) Compound 6 (3 mg/kg)
Treatment Group C (n=6/group): (See Results in FIG. 5c) • 1) Lean control (10% HPβCD) • 2) Control • 3) Compound 25 (1 mg/kg) • 4) Compound 25 (3 mg/kg) • 5) Compound 25 (10 mg/kg) • 6) Compound 25 (15 mg/kg) • The compounds were dissolved in a 10% hydroxy propyl beta cyclodextrin solution, and administered to animals in a volume of 10 ml/kg/dose.
To monitor the effect of the tested compounds, animals were bled from the tail vein at the end of the dark cycle on days 0 (for sorting) and day 5 of the treatment period. Fed serum cholesterol levels were measured in duplicate. The blood is kept at room temperature to allow coagulation, after which the serum is separated and assayed for total cholesterol (Infinity reagent, Sigma), HDL cholesterol (using HDL precipitating reagent and infinity reagent, Sigma) and LDL cholesterol (EZLDL kit, Sigma). As shown in FIGS. 5a–c, all compounds tested show significant reduction in total and LDL cholesterol levels and a significant increase in HDL cholesterol levels compared to high fat fed control animals.

[3] = system: Mouse pre-adipocyte 3T3-L1 cells; assay: Differentiation of 3T3-L1 pre-adipocytes in an in vitro assay (lipid content); assay type: cell-based; conditions: 0.1 μM, 7 days; taken as reference
Experimental: The compounds of the invention have been screened in an in-vitro adipocyte differentiation assay, as described in Example 26. Mouse pre-adipocyte 3T3-L1 cells were treated with compounds at concentrations less than or equal to 10^−6 M for 7 days.
The compounds can be considered active for adipocyte differentiation if the lipid accumulation induced is at least about 20%, or at least about 40% of the lipid accumulation induced by 5-[3-(3,5,5,8,8-Pentamethyl-5,6,7,8-tetrahydro-naphthalen-2-yl)-4-trifluoromethoxy-benzylidene]-thiazolidine-2,4-dione when it is applied to control cultures of mouse preadipocyte 3T3-L1 cells at a concentration of about 1×10^−7 M.
The following protocol was used to determine adipocyte differentiation activity of the compounds of the invention: Mouse pre-adipocyte 3T3-L1 cells obtained from ATCC (American Tissue Culture Collection, MD) were initially grown in DME Dulbecco's modified Eagle's medium containing 4500 mg/L glucose; 4 mM L-glutamine; 10 U/ml Pen-G; 10 mcg/ml Streptomycin and 10% Bovine Calf Serum (CS) at 37° C. and 10% CO2. Cells were plated in 96 well plates at a density of approximately 3,000 cells/well and grown to confluence (when cells use 100% of the available space on the well) in the same medium. […] The cellular lysates were analyzed for their lipid content using the Triglyceride-GPO Trinder reagent from Sigma.

[4] = Oral bioavailability, single dose pharmacokinetic study in rats (plasma concentration by HPLC); assay type: in vivo, Sprague Dawley rats; conditions: rat, single oral dose 10 mg/kg in 10% HPβCD, 0.5–26 hours, FIG. 7
From the text: Oral bioavailability is an important pharmaceutical characteristic for a compound to advance through drug development. A basic assessment of the oral bioavailability of a compound can be done in a single dose pharmacokinetic study in wild type rats.
Six to eight week-old male Sprague Dawley rats (Harlan) were housed in a fixed 12–12- hr artificial light-dark cycle, and maintained on a standard rodent diet provided ad libitum. Animals were allowed two days to acclimate in this experimental environment prior to the initiation of the study. Compounds 24 and 25 were dissolved in a 10% hydroxypropyl beta cyclodextrin solution and administered by oral gavage in a final dose of 10 mg/kg in a volume of 5 ml/kg. Treatment groups were divided as follows:
Treatment groups(n=3/group): • 1) Compound 24 (10 mg/kg) • 2) Compound 25 (10 mg/kg)
Each animal received a single treatment, after which, the animal was bled from the tail vein at the following time points: 0.5, 1, 2, 4, 6, 9, 12, and 26 hours after treatment. To measure the concentration of each compound in plasma, blood samples were collected in heparin-coated tubes, and the plasma was isolated and analyzed by HPLC.

[5] = system: Mouse pre-adipocyte 3T3-L1 cells; conditions: stated as previously shown; cited from earlier work

SMILES	serum glucose level (KKA^y mice)	serum triglyceride level (KKA^y mice)	cholesterol efflux [1]	HDL cholesterol [2]	LDL cholesterol [2]	total cholesterol [2]	differentiation of 3T3-L1 cells (lipid content), standard for differentiation activity [3] [%]	concentration of compound in plasma [4]	inducer of adipocyte differentiation [5]
CCN1C(=O)CC(C)(C)c2cc(C)c(-c3cc(/C=C4\SC(=O)NC4=O)ccc3OC(F)(F)F)cc21 [Compound 2, 5-[3-(1-Ethyl-4,4,6-trimethyl-2-oxo-1,2,3,4-tetrahydro-quinolin-7-yl)-4-trifluoromethoxy-benzylidene]-thiazolidine-2,4-dione]	decrease	decrease	increases	increasing	decrease	decrease			
Cc1cc2c(cc1-c1cc(/C=C3\SC(=O)NC3=O)ccc1OC(F)(F)F)C(C)(C)CCC2(C)C [Compound 24, 5-[3-(3,5,5,8,8-Pentamethyl-5,6,7,8-tetrahydro-naphthalen-2-yl)-4-trifluoromethoxy-benzylidene]-thiazolidine-2,4-dione]							100	only detected as being present at near the limit of detection	potent inducer of adipocyte differentiation
